# Measurements: patent US8802678B2, “Carbonylated (aza) cyclohexanes as dopamine D3 receptor ligands” (Bioprojet, priority 2006, dated 2014)
row,SMILES,melting point [°C]
1,"CCOC(=O)Nc1cccc(N2CCN(CC[C@H]3CC[C@H](NC(=O)CC#N)CC3)CC2)c1 [Example 217, [3-(4-{2-[4-(2-Cyanoacetylamino)cyclohexyl]ethyl}piperazin-1-yl)phenyl] carbamic acid ethyl ester]",170
2,CC(=O)CN1CCC(CCN2CCN(c3cc(F)cc(C(F)(F)F)c3)CC2)CC1.Cl.Cl,295
3,CC(=O)CN1CCC(CCN2CCN(c3ccc(F)c(C#N)c3Cl)CC2)CC1.Cl.Cl,291
4,"NC(=O)CCC(=O)N[C@H]1CC[C@H](CCN2CCN(c3ccccc3F)CC2)CC1 [Example 186, N-(4-{2-[4-(2-Fluorophenyl)piperazin-1-yl]ethyl}cyclohexyl)succinamide]",255
5,"N#CCC(=O)N[C@H]1CC[C@H](CCN2CCN(c3cccc(OC(F)(F)F)c3)CC2)CC1 [Example 157, 2-Cyano-N-(4-{2-[4-(3-trifluoromethoxyphenyl)piperazin-1-yl]ethyl}cyclohexyl)acetamide]",173 to 174
6,CC(=O)CN1CCC(CCN2CCN(c3ccccc3C)CC2)CC1.Cl.Cl,289
7,"N#CCC(=O)N[C@H]1CC[C@H](CCN2CCN(c3cccc(CO)c3)CC2)CC1 [Example 268, 2-Cyano-N-(4-{2-[4-(3-hydroxymethylphenyl)piperazin-1-yl]ethyl}cyclohexyl)acetamide]",180
8,"CC(=O)CN1CCC(CCN2CCN(c3ccc(C)c(C#N)c3)CC2)CC1 [Example 464, 2-Methyl-5-(4-{2-[1-(2-oxopropyl)piperidin-4-yl]ethyl}piperazin-1-yl)benzonitrile]",107
9,"CCOCC(=O)N[C@H]1CC[C@H](CCN2CCN(c3cccc4c3CCCC4)CC2)CC1 [Example 117, 2-Ethoxy-N-(4-{2-[4-(5,6,7,8-tetrahydronaphthalen-1-yl)piperazin-1-yl]ethyl}-cyclohexyl)acetamide]",91
10,"N#CCC(=O)N[C@H]1CC[C@H](CCN2CCN(c3cccc(Cl)c3)CC2)CC1 [Example 156, N-(4-{2-[4-(3-Chlorophenyl)-piperazin-1-yl]ethyl}cyclohexyl)-2-cyanoacetamide]",186 to 187
11,Cl.O=C(CCC(F)(F)F)N1CCC(CCN2CCN(c3cccc4c3CCC4)CC2)CC1,219
12,O=C(CC1CC=CC1)N[C@H]1CC[C@H](CCN2CCN(c3ccccc3F)CC2)CC1 [Example 387],188
13,"Cc1ccc(Cl)cc1N1CCN(CC[C@H]2CC[C@H](NC(=O)CCC(N)=O)CC2)CC1 [Example 190, N-(4-{2-[4-(5-Chloro-2-methylphenyl)piperazin-1-yl]ethyl}cyclohexyl)succinamide]",237 to 240
14,"N#CCC(=O)N[C@H]1CC[C@H](CCN2CCN(c3cccc4ccccc34)CC2)CC1 [Example 183, 2-Cyano-N-{4-[2-(4-naphthalen-1-ylpiperazin-1-yl)ethyl]cyclohexyl}acetamide]",174
15,"CCOCC(=O)N[C@H]1CC[C@H](CCN2CCN(c3cccc(F)c3F)CC2)CC1 [Example 112, N-(4-{2-[4-(2,3-Difluorophenyl)-piperazin-1-yl]ethyl}cyclohexyl)-2-ethoxyacetamide]",140
16,"N#CCCCC(=O)N[C@H]1CC[C@H](CCN2CCN(c3cccc(Cl)c3F)CC2)CC1 [Example 205, N-(4-{2-[4-(3-Chloro-2-fluorophenyl)piperazin-1-yl]ethyl}cyclohexyl)-4-cyanobutanamide]",186
17,"CCOCC(=O)N[C@H]1CC[C@H](CCN2CCN(c3ccccc3OC)CC2)CC1 [Example 123, 2-Ethoxy-N-(4-{2-[4-(2-methoxyphenyl)piperazin-1-yl]ethyl}cyclohexyl)acetamide]",210 to 214
18,"CC(C)c1cccc(N2CCN(CC[C@H]3CC[C@H](NC(=O)CC#N)CC3)CC2)c1 [Example 335, 2-Cyano-N-(4-{2-[4-(3-isopropylphenyl)piperazin-1-yl]ethyl}cyclohexyl)acetamide]",153
19,"COc1ccccc1N1CCN(CC[C@H]2CC[C@H](NC(=O)CCCC#N)CC2)CC1 [Example 382, 4-Cyano-N-(4-{2-[4-(2-methoxyphenyl)piperazin-1-yl]ethyl}cyclohexyl)butanamide]",147
20,N#CCCCC(=O)N[C@H]1CC[C@H](CCN2CC=C(c3cc(F)cc(C(F)(F)F)c3)CC2)CC1,114
21,"N#CCCCC(=O)N[C@H]1CC[C@H](CCN2CCN(c3cc(F)cc(F)c3)CC2)CC1 [Example 254, 4-Cyano-N-(4-{2-[4-(3,5-difluorophenyl)piperazin-1-yl]ethyl}cyclohexyl)butanamide]",165
22,"Cc1cc(C)cc(N2CCN(CC[C@H]3CC[C@H](NC(=O)CC#N)CC3)CC2)c1 [Example 148, 2-Cyano-N-(4-{2-[4-(3,5-dimethylphenyl)piperazin-1-yl]ethyl}cyclohexyl)acetamide]",192
23,Cc1cc(C)cc(C2=CCN(CC[C@H]3CC[C@H](NC(=O)CC#N)CC3)CC2)c1,182
24,CC(=O)CN1CCC(CCN2CCN(c3cccc4c3OCO4)CC2)CC1.Cl.Cl,264
25,"O=C(N[C@H]1CC[C@H](CCN2CCN(c3ccccc3)CC2)CC1)C1=CCCCC1 [Example 66, Cyclohex-1-enecarboxylic acid {4-[2-(4-phenylpiperazin-1-yl)ethyl]cyclohexyl}amide trans/cis 90/10]",193
26,"O=C(C[C@H]1CC[C@H](CCN2CCN(c3ccccc3F)CC2)CC1)N1CCCC1 [Example 302, 2-(4-{2-[4-(2-Fluorophenyl)-piperazin-1-yl]ethyl}cyclohexyl)-1-pyrrolidin-1-ylethanone]",92 to 93
27,CCOCC(=O)N1CCC(CCN2CCN(c3cccc(C(F)(F)F)c3)CC2)CC1.Cl,145
28,"O=C(CC(F)(F)F)N[C@H]1CC[C@H](CCN2CCN(c3cccc(F)c3)CC2)CC1 [Example 409, 3,3,3-Trifluoro-N-(4-{2-[4-(3-fluorophenyl)piperazin-1-yl]ethyl}cyclohexyl)propanamide]",195
29,Cl.Cl.O=C(CN1CCC(CCN2CCN(c3cccc(C(F)(F)F)c3)CC2)CC1)c1ccccc1,260

# The remaining lines, values ahead:
row,melting point [°C],SMILES
1,180,"Cc1ccc(N2CCN(CC[C@H]3CC[C@H](NC(=O)CCCC#N)CC3)CC2)cc1F [Example 538, 4-Cyano-N-(4-{2-[4-(3-fluoro-4-methylphenyl)piperazin-1-yl]ethyl}cyclohexyl)butanamide]"
2,210,"N#CCCC(=O)N[C@H]1CC[C@H](CCN2CCN(c3ccc(Cl)c(Cl)c3F)CC2)CC1 [Example 720, 3-Cyano-N-(4-{2-[4-(3,4-dichloro-2-fluorophenyl)piperazin-1-yl]ethyl}cyclohexyl)propanamide]"
3,102,"CCCOCC(=O)N[C@H]1CC[C@H](CCN2CCN(c3cccc(C(F)(F)F)c3F)CC2)CC1 [Example 516, N-(4-{2-[4-(2-Fluoro-3-trifluoromethylphenyl)piperazin-1-yl]ethyl}cyclohexyl)-2-propoxyacetamide]"
4,210,"COCCCC(=O)N[C@H]1CC[C@H](CCN2CCN(c3ccc(Cl)c(Cl)c3F)CC2)CC1 [Example 684, N-(4-{2-[4-(3,4-Dichloro-2-fluoro-phenyl)piperazin-1-yl]ethyl}cyclohexyl)-4-methoxybutanamide]"
5,225,"N#CCC(=O)N[C@H]1CC[C@H](CCN2CCN(c3cc(C#N)ccc3Cl)CC2)CC1 [Example 599, N-(4-{2-[4-(2-Chloro-5-cyanophenyl)piperazin-1-yl]ethyl}cyclohexyl)-2-cyanoacetamide]"
6,154,"CCOCC(=O)N[C@H]1CC[C@H](CCN2CCN(c3ccc(Cl)cc3)CC2)CC1 [Example 515, N-(4-{2-[4-(4-Chloro-phenyl)piperazin-1-yl]ethyl}-cyclohexyl)-2-ethoxyacetamide]"
7,212,"N#CCC(=O)N[C@H]1CC[C@H](CCN2CCN(c3ccc(C(F)(F)F)cc3F)CC2)CC1 [Example 645, 2-Cyano-N-(4-{2-[4-(2-fluoro-4-trifluoromethylphenyl)piperazin-1-yl]ethyl}cyclohexyl) acetamide]"
8,140,"O=C(N[C@H]1CC[C@H](CCN2CCN(c3cccc(C(F)(F)F)c3F)CC2)CC1)[C@@H]1CCCN1 [Example 501, Pyrrolidine-2-carboxylic acid (4-{2-[4-(2-fluoro-3-trifluoro-methylphenyl)piperazin-1-yl]ethyl}cyclohexyl) amide]"
9,237,"O=C(N[C@H]1CC[C@H](CCN2CCN(c3ccc(Cl)cc3)CC2)CC1)C1=CCCC1 [Example 488, Cyclopent-1-enecarboxylic acid (4-{2-[4-(4-chlorophenyl)-piperazin-1-yl]ethyl}cyclohexyl) amide]"
10,199,"Cc1ccc(N2CCN(CC[C@H]3CC[C@H](NC(=O)CC(F)(F)F)CC3)CC2)cc1C [Example 509, N-(4-{2-[4-(3,4-Dimethylphenyl)piperazin-1-yl]ethyl}cyclohexyl)-3,3,3-trifluoropropanamide]"
11,112,"CCOCC(=O)N[C@H]1CC[C@H](CCN2CCN(c3ccc(Cl)c(Cl)c3)CC2)CC1 [Example 487, N-(4-{2-[4-(3,4-Dichlorophenyl)piperazin-1-yl]ethyl}cyclohexyl)-2-ethoxyacetamide]"
12,168,"COCCCC(=O)N[C@H]1CC[C@H](CCN2CCN(c3cccc(C#N)c3)CC2)CC1 [Example 513, N-(4-{2-[4-(3-Cyanophenyl)-piperazin-1-yl]ethyl}cyclohexyl)-4-methoxybutanamide]"
13,122,"CCOCC(=O)N[C@H]1CC[C@H](CCN2CCN(c3ccc(C)c(C)c3)CC2)CC1 [Example 508, N-(4-{2-[4-(3,4-Dimethylphenyl)piperazin-1-yl]ethyl}cyclohexyl)-2-ethoxyacetamide]"
14,203,"COCCCC(=O)N[C@H]1CC[C@H](CCN2CCN(c3ccc(F)c(F)c3F)CC2)CC1 [Example 652, 4-Methoxy-N-(4-{2-[4-(2,3,4-trifluorophenyl)piperazin-1-yl]ethyl}cyclohexyl)butanamide]"
15,66,"CON(C)C(=O)CN1CCC(CCN2CCN(c3cccc(C)c3C)CC2)CC1 [Example 772, 2-(4-{2-[4-(2,3-dimethylphenyl)piperazin-1-yl]ethyl}piperidin-1-yl)-N-methoxy-N-methylacetamide]"
